Reference: patent publication US20250145588A1, “CRYSTAL FORM OF TAVAPADON, AND PREPARATION METHOD THEREFOR AND USE THEREOF” (CRYSTAL PHARMACEUTICAL (SUZHOU) CO., LTD., priority 2022, published 2025)
Entries after “also recorded” stand apart in the source; their conditions may differ.

Assays:
Format in all cases: physicochemical
[1] = Storage stability of solid forms (crystalline form by XRPD, chemical purity by HPLC); conditions: for Purity after storage: HPLC
Experimental: XRPD patterns in the present disclosure were acquired by a Bruker X-ray powder diffractometer. The parameters of the X-ray powder diffraction method of the present disclosure are as follows: • X-Ray source: Cu, Kα • Kα1 (Å): 1.54060; Kα2 (Å): 1.54439 • Kα2/Kα1 intensity ratio: 0.50
A certain amount of the prior art solid obtained in Example 4 was packaged with sealed container (with desiccant inside), and stored under 40° C./75% RH. The solid form before and after storage was confirmed by XRPD.
A certain amount of Form CSI was packaged with corresponding package conditions, and then stored under 25° C./60% RH, 40° C./75% RH and 60° C./75% RH. Crystalline form and chemical purity were checked by XRPD and HPLC, respectively. Form CSI kept stable for at least 6 months when stored at 25° C./60% RH open and sealed (with desiccants) package, 40° C./75% RH open and sealed (with desiccants) package, and 60° C./75% RH sealed (with desiccants) package.
A certain amount of Form CSII sample was packaged with corresponding package conditions, and then stored at 25° C./60% RH and 40° C./75% RH. Crystalline form was checked by XRPD. Form CSII kept stable for at least 1 month for both open and sealed (with desiccants) package conditions at 25° C./60% RH and 40° C./75% RH.

[2] = Hygroscopicity and humidity stability by DVS (0% RH-95% RH-0% RH cycle at 25° C., XRPD before and after); conditions: for Hygroscopicity (in words) / Weight gain (water uptake) at 80% RH: DVS; for Form change after DVS test (humidity stability): one cycle 0% RH-95% RH-0% RH, XRPD
Experimental: DVS data in the present disclosure were measured via an SMS (Surface Measurement Systems Ltd.) intrinsic DVS instrument. The instrument control software is DVS-Intrinsic control software. Typical Parameters for DVS test are as follows: • Temperature: 25° C. • Gas and flow rate: N2, 200 mL/minRH range: 0% RH to 95% RH
The hygroscopicity of Form CSI was determined by a DVS instrument with a certain amount of sample. The mass at each relative humidity was recorded during a cycle of 0% RH-95% RH-0% RH at 25° C., and XRPD was collected before and after DVS test.
The hygroscopicity of Form CSII was determined by DVS instrument with a certain amount of sample. The mass at each relative humidity was recorded during the cycle of 0% RH-95% RH-0% RH at 25° C., and XRPD was tested before and after DVS.

[3] = Physical stability upon mechanical force (ball-milling, XRPD before and after grinding); conditions: 500 rpm, 5 minutes
Experimental: Form CSI was ground using a ball-milling at a vibration speed of 500 rpm for 5 minutes.
Form CSII was ground using a ball-milling at a vibration speed of 500 rpm for 5 minutes.

SMILES: Cc1cc(Oc2ncccc2C(F)(F)F)ccc1-c1c(C)c(=O)[nH]c(=O)n1C (single isomer, unassigned) [Form CSI]
- Time kept stable on storage ([1]; 25° C./60% RH open and sealed (with desiccants), 40° C./75% RH open and sealed (with desiccants), 60° C./75% RH sealed (with desiccants)): at least 6 months
- Purity after storage ([1]; 25° C./60% RH, open, 6 months): 99.85%
- Solid form after storage ([1]; 25° C./60% RH, open, 6 months, XRPD): Form CSI
- Purity after storage ([1]; 25° C./60% RH, sealed (with desiccants), 6 months): 99.85%
- Solid form after storage ([1]; 25° C./60% RH, sealed (with desiccants), 6 months, XRPD): Form CSI
- Time remaining unchanged on storage ([1]; 40° C./75% RH): at least 6 months
- Purity after storage ([1]; 40° C./75% RH, open, 6 months): 99.85%
- Solid form after storage ([1]; 40° C./75% RH, open, 6 months, XRPD): Form CSI
- Purity after storage ([1]; 40° C./75% RH, sealed (with desiccants), 6 months): 99.85%
- Solid form after storage ([1]; 40° C./75% RH, sealed (with desiccants), 6 months, XRPD): Form CSI
- Purity after storage ([1]; 60° C./75% RH, sealed (with desiccants), 6 months): 99.85%
- Solid form after storage ([1]; 60° C./75% RH, sealed (with desiccants), 6 months, XRPD): Form CSI
- Time remaining unchanged on storage ([1]; 60° C./75% RH, sealed package): at least 6 months
- Hygroscopicity (in words) [2]: almost non hygroscopic
- Weight gain (water uptake) at 80% RH [2]: 0.05%
- Form change after DVS test (humidity stability) [2]: No form change; also recorded: remains unchanged
- Form change after grinding [3]: no form change; also recorded: doesn't change after grinding

SMILES: Cc1cc(Oc2ncccc2C(F)(F)F)ccc1-c1c(C)c(=O)[nH]c(=O)n1C (single isomer, unassigned) [Form CSII]
- Solid form after storage ([1]; 25° C./60% RH, sealed (with desiccants), 1 month, XRPD): Form CSII
- Solid form after storage ([1]; 40° C./75% RH, sealed (with desiccants), 1 month, XRPD): remains unchanged; also recorded: Form CSII
- Time kept stable on storage ([1]; open and sealed (with desiccants) package at 25° C./60% RH and 40° C./75% RH): at least 1 month
- Hygroscopicity (in words) [2]: almost non hygroscopic
- Weight gain (water uptake) at 80% RH [2]: 0.19%
- Form change after DVS test (humidity stability) [2]: No form change; also recorded: remains unchanged
- Form change after grinding [3]: no form change; also recorded: doesn't change after grinding

SMILES: Cc1cc(Oc2ncccc2C(F)(F)F)ccc1-c1c(C)c(=O)[nH]c(=O)n1C [prior art solid, reference compound]
- Solid form change after storage ([1]; 40° C./75% RH, sealed container with desiccant, 10 days, XRPD): undergoes crystal transformation; also recorded: undergoes crystalline transformation
